We go through one molecule from paper PMC9020084 (iScience, 2022).

Common to all, as to type: biochemical
Assay [1] concerns the target T1, SHIP1ΔC2 (S1ΔC2) (Homo sapiens, UniProt Q92835).
T1 sequence (Q92835 397-730): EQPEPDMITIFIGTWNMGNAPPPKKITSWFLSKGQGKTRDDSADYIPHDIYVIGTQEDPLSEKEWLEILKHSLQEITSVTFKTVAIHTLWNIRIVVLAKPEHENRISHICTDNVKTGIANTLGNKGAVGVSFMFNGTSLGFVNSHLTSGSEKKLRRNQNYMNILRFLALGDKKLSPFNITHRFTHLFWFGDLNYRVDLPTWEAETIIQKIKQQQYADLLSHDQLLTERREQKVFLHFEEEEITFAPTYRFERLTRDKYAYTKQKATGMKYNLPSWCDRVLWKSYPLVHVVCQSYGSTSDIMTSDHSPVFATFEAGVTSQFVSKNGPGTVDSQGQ
Kind of assay: malachite green phosphate release. The settings on record: agonist (activation); C2 domain deleted.

In assay [2] the target is T2, SHIP1-Enz (S1-Enz) (Homo sapiens, UniProt Q92835).
T2 sequence (Q92835 397-864): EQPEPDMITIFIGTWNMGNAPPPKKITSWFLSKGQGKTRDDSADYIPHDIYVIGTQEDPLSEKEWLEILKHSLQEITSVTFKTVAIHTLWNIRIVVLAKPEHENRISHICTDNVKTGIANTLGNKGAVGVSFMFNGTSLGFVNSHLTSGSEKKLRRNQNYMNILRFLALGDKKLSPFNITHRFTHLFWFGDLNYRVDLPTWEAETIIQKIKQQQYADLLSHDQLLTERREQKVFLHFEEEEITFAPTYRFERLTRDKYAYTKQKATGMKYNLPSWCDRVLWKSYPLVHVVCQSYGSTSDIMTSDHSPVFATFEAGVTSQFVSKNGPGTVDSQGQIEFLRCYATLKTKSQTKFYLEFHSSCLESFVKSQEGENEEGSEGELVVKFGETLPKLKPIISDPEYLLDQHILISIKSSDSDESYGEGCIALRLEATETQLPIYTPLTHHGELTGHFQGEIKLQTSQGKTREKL
Kind of assay: fluorescence polarization PI.

Assay [3] deals with T3, SHIP2-Enz (S2-Enz) (Homo sapiens, UniProt O15357).
T3 sequence (O15357 414-872): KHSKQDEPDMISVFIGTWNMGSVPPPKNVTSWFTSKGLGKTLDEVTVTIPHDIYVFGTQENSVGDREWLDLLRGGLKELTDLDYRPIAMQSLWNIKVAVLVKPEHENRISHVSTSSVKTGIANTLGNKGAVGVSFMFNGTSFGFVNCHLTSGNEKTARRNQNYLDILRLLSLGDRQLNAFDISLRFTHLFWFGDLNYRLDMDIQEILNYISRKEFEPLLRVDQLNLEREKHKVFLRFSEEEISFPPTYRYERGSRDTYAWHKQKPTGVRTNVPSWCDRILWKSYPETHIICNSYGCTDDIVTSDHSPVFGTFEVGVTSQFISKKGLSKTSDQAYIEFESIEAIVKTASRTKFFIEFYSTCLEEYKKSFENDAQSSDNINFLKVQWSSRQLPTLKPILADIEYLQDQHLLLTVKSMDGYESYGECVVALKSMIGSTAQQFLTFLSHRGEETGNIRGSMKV
Nature of the assay: fluorescence polarization PI.

As for `Cc1sc(S(=O)(=O)N2CCSCC2)cc1NC(=O)CNS(=O)(=O)c1ccc(F)cc1` [compound 8, K306], the “malachite green phosphate release” value in assay [1] is “K306 retained significant agonistic activity for SHIP1ΔC2”. For the same molecule, the concentration giving a half-maximal response (EC50) is 119 nM in assay [2] and 1170 nM in assay [3].
